The subject of series [1] is TRa2. Nature of the series: Glycosyl donor selectivity of TRa2. Particulars: under the conditions shown in the Example section. The series is classed as biochemical, Trichoderma viride. An excerpt: Moreover, this enzyme is a glycosyltransferase capable of producing not only sugars composed of one or two glucose molecules, but also glycosides whose sugar chain length is three (G3) or more glucose molecules.

A short description of series [2]: Heat stability of glycoside (% remaining, HPLC). The format is physicochemical. Particulars: 100 μM in 10 mM potassium phosphate buffer pH 7.0, 4° C. to 100° C., 0 to 4 hours. How it is done:
After 10 mM potassium phosphate buffer (pH 7.0, 30 μl) containing 100 μM (+)-catechin or 4′-O-α-D-glucopyranosyl-(+)-catechin was treated at different temperatures ranging from 4° C. to 100° C. for 0 to 4 hours, each sample was transferred on ice and mixed with 0.1% TFA (60 μl), followed by HPLC analysis in the same manner as shown in Example 1.

Series [3] in a line: Solubility in water (HPLC quantification of supernatant). The series is classed as physicochemical. Particulars: added to water at 10 to 450 mg/ml, vigorous stirring, centrifugation.

For `OC[C@H]1O[C@H](O[C@H]2[C@H](O)[C@@H](O)C(O)O[C@@H]2CO)[C@H](O)[C@@H](O)[C@@H]1O` (mixture of isomers) [maltose], in series [1], the “use as glycosyl donor by TRa2” value was “does not target”.

`OC[C@H]1O[C@H](Oc2ccc([C@H]3Oc4cc(O)cc(O)c4C[C@@H]3O)cc2O)[C@H](O)[C@@H](O)[C@@H]1O` [4′-O-α-D-glucopyranosyl-(+)-catechin]: the “heat stability (% remaining) compared with catechin” value in series [2] is recorded as “more stable against heat than catechin”.

As to `OC[C@H]1O[C@H](Oc2cc(O)cc3c2C[C@H](O)[C@@H](c2ccc(O)c(O)c2)O3)[C@H](O)[C@@H](O)[C@@H]1O` [5-O-α-D-glucopyranosyl-(+)-catechin], in series [3], the “solubility in water relative to (+)-catechin” value was “at least 40 fold”.

For `Oc1cc(O)c2c(c1)O[C@H](c1ccc(O)c(O)c1)[C@@H](O)C2` [(+)-catechin], the solubility in water entry in series [3] is listed as “substantially insoluble in water”.

For `O=C[C@H](O)[C@@H](O)[C@H](O[C@@H]1O[C@H](CO)[C@@H](O)[C@H](O)[C@H]1O)[C@H](O)CO` [cellobiose], in series [1], the “use as glycosyl donor by TRa2” value is “does not target”.

`OC[C@H]1O[C@@H]2O[C@H]3[C@H](O)[C@@H](O)[C@@H](O[C@H]4[C@H](O)[C@@H](O)[C@@H](O[C@H]5[C@H](O)[C@@H](O)[C@@H](O[C@H]6[C@H](O)[C@@H](O)[C@@H](O[C@H]7[C@H](O)[C@@H](O)[C@@H](O[C@H]1[C@H](O)[C@H]2O)O[C@@H]7CO)O[C@@H]6CO)O[C@@H]5CO)O[C@@H]4CO)O[C@@H]3CO` [α-cyclodextrin]: the “use as glycosyl donor by TRa2” value in series [1] is given as “does not target”.

On to `OC[C@H]1O[C@@H]2O[C@H]3[C@H](O)[C@@H](O)[C@@H](O[C@H]4[C@H](O)[C@@H](O)[C@@H](O[C@H]5[C@H](O)[C@@H](O)[C@@H](O[C@H]6[C@H](O)[C@@H](O)[C@@H](O[C@H]7[C@H](O)[C@@H](O)[C@@H](O[C@H]8[C@H](O)[C@@H](O)[C@@H](O[C@H]1[C@H](O)[C@H]2O)O[C@@H]8CO)O[C@@H]7CO)O[C@@H]6CO)O[C@@H]5CO)O[C@@H]4CO)O[C@@H]3CO` [β-cyclodextrin], for which, in series [1], the “use as glycosyl donor by TRa2” value is on record as “does not target”.

The record behind these values is patent US8383384B2, “Polypeptide having glycosylation activity on a flavonoid” (Suntory Holdings Limited, priority 2007, dated 2013).
